Patent publication US6638951B1, “Benzamide derivatives and drugs containing the same” (Hokuriku Seiyaku Co., Ltd., priority 1999, dated 2003)
Where a name gives a salt, the structure may show the parent alone.

system: male ferrets; test: Emetic action in ferrets; format: in vivo; settings: 16 hours fasting, 10 mg/kg p.o., during 2 hours after administration, 8 tested ferrets per compound
Description: The tested compound of Example 5 was used as a methanesulfonic acid salt, and the following compounds disclosed in Japanese Patent Unexamined Publication No. 5-262724/1993 were used as reference compounds:
Each test compound dissolved in 10% aqueous dimethyl sulfoxide solution was administered to male ferrets, weighing 0.9 to 1.3 kg, and 16 hours fasting, and then the incidence of vomiting was observed during 2 hours after the administration.

First: COc1cc(N)c(Cl)cc1C(=O)NC1CCN(CC(=O)OCC(C)C)CC1 [Example 4, Isobutyl 4-(4-amino-5-chloro-2-methoxybenzamido)-1-piperidineacetate]
Second: CCOC(=O)CN1CCC(NC(=O)c2cc(Cl)c(N)cc2OC)CC1.Cl [Reference compound 2, Ethyl 4-(4-amino-5-chloro-2-methoxybenzamido)-1-piperidine-acetate hydrochloride, reference compound]
The “Number of ferrets showing vomiting” value of the first is lower: 1 for the first, 8 for the second.

Going from COc1cc(N)c(Cl)cc1C(=O)NC1CCN(CC(=O)O)CC1.Cl [Reference compound 1, 4-(4-amino-5-chloro-2-methoxybenzamido)-1-piperidineacetic acid hydrochloride, reference compound] to CCCOC(=O)CN1CCC(NC(=O)c2cc(Cl)c(N)cc2OC)CC1 [Example 2, n-Propyl 4-(4-amino-5-chloro-2-methoxybenzamido)-1-piperidineacetate], the “Number of ferrets showing vomiting” value rises from 0 to 2.

Going from CCCCCCOC(=O)CN1CCC(NC(=O)c2cc(Cl)c(N)cc2OC)CC1 [Example 7, n-Hexyl 4-(4-amino-5-chloro-2-methoxybenzamido)-1-piperidineacetate] to CCCCCOC(=O)CN1CCC(NC(=O)c2cc(Cl)c(N)cc2OC)CC1 [Example 5, n-Pentyl 4-(4-amino-5-chloro-2-methoxybenzamido)-1-piperidineacetate], the “Number of ferrets showing vomiting” value falls from 1 to 0.

In the case of CCCCOC(=O)CN1CCC(NC(=O)c2cc(Cl)c(N)cc2OC)CC1 [Example 1, n-Butyl 4-(4-amino-5-chloro-2-methoxybenzamido)-1-piperidineacetate], the “Number of ferrets showing vomiting” value is reported as 0.

system: not given; test: not given; settings: not given

CCCOC(=O)CN1CCC(NC(=O)c2cc(Cl)c(N)cc2OC)CC1 (as salt: methanesulfonate) [Example 2, n-Propyl 4-(4-amino-5-chloro-2-methoxybenzamido)-1-piperidineacetate] and CCCCOC(=O)CN1CCC(NC(=O)c2cc(Cl)c(N)cc2OC)CC1 (as salt: methanesulfonate) [Example 1, n-Butyl 4-(4-amino-5-chloro-2-methoxybenzamido)-1-piperidineacetate] cannot be ordered by melting point: 209 to 210 °C for the first, 209 to 211.5 °C for the second.

Compared with CCCCCCOC(=O)CN1CCC(NC(=O)c2cc(Cl)c(N)cc2OC)CC1 (as salt: hydrochloride) [Example 7, n-Hexyl 4-(4-amino-5-chloro-2-methoxybenzamido)-1-piperidineacetate], CCCCCOC(=O)CN1CCC(NC(=O)c2cc(Cl)c(N)cc2OC)CC1 (as salt: methanesulfonate) [Example 5, n-Pentyl 4-(4-amino-5-chloro-2-methoxybenzamido)-1-piperidineacetate] is higher in melting point: 133 to 137 °C for the first, 202.5 to 203 °C for the second.

Compared with COc1cc(N)c(Cl)cc1C(=O)NC1CCN(CC(=O)OC(C)C)CC1 (as salt: hydrochloride) [Example 3, Isopropyl 4-(4-amino-5-chloro-2-methoxybenzamido)-1-piperidineacetate], COc1cc(N)c(Cl)cc1C(=O)NC1CCN(CC(=O)OCC(C)C)CC1 (as salt: methanesulfonate) [Example 4, Isobutyl 4-(4-amino-5-chloro-2-methoxybenzamido)-1-piperidineacetate] is higher in melting point: 125 to 130 °C for the first, 207 to 208 °C for the second.

Compared with COc1cc(N)c(Cl)cc1C(=O)NC1CCN(CC(=O)OCCC(C)C)CC1 (as salt: methanesulfonate) [Example 6, Isopentyl 4-(4-amino-5-chloro-2-methoxybenzamido)-1-piperidineacetate], CCCCOC(=O)CN1CCC(NC(=O)c2cc(Cl)c(N)cc2OC)CC1 (as salt: methanesulfonate) [Example 9, n-Butyl 4-(4-amino-5-chloro-2-methoxybenzamido)-1-piperidineacetate] is lower in melting point: 199.5 to 201 °C for the first, 111 to 112 °C for the second.

Compound CCCCOC(=O)CN1CCC(NC(=O)c2cc(Cl)c(N)cc2OC)CC1 (as salt: hydrochloride) [Example 8, n-Butyl 4-(4-amino-5-chloro-2-methoxybenzamido)-1-piperidineacetate] has a melting point of 141 to 144 °C.
